From patent US12357607B2, “Compositions and methods for intravenous administration of 2-bromo-1-(3,3-dinitroazetidin-1-yl)ethanone” (EpicentRx, Inc., priority 2016, dated 2025)

Experiment: Phase 1 dose-escalation study: intravenous aqueous solution of ABDNAZ; safety, tolerability, adverse events
Format: in vivo, human
Procedure: An aqueous solution of ABDNAZ was intravenously administered to twenty-five human patients as part of a Phase I clinical study. The aqueous solution contained ABDNAZ (2 mg/mL), polyethylene glycol having a number average molecular weight of 400 g/mol (6% w/w), dimethylacetamide (3% w/w), and water for injection. Patients were administered a volume of the aqueous solution of ABDNAZ sufficient to deliver a dose of ABDNAZ in the amount of 10 mg/m^2, 16.7 mg/m^2, 24.6 mg/m^2, 33 mg/m^2, 55 mg/m^2, or 83 mg/m^2. Pain at the injection site due to administration of the aqueous solution of ABDNAZ was experienced by 84% of patients. […] Thereafter, peripheral intravenous delivery in the antecubital or forearm area was used and a longer duration of time was used to perform the infusion (e.g., ranging from 2 hours to 8 hours, while administering at a rate of 3.5 mL/hour that could be adjusted up or down in 0.5 mL/hour increments based on patients' ability to tolerate the infusion).
In this open-label, human, dose-escalation phase 1 study, a 3+3 dose-escalation design was used to assess safety, tolerability, and pharmacokinetics of ABDNAZ. Patients were enrolled from the University of California-San Diego Moores Cancer Center, La Jolla, CA, USA, and the Sarah Cannon Research Institute, Nashville, TN, USA. […] Previous antineoplastic therapies had to have been discontinued at least 6 weeks before intervention start, and patients could show no residual side-effects of previous therapies. Patients were required to practice effective contraception while receiving ABDNAZ. All patients had evaluable disease. Key exclusion criteria included hypoalbuminaemia (albumin <30 g/L), active brain metastases (although patients with stable brain metastases were eligible), pregnancy or breast feeding, any other clinically significant illness or psychiatric disorder that could affect compliance or endpoint assessments, and concurrent use of any other investigational drugs.
Screening assessments were done at the clinical site less than 16 days before treatment initiation and included an electrocardiogram, urinalysis, Modified Borg Dyspnea Assessment, pulse oximetry, and radiographic tumour measurement. A medical history, physical examination, pregnancy test, performance status, complete blood count, a comprehensive serum chemistry, and urinalysis were done within 16 days of the first dosing.
The protocol was reviewed and approved by the investigational review boards at the Moores Cancer Center and the Sarah Cannon Research Institute. All procedures were performed in accordance with the principles established by the Helsinki Declaration. Patients gave written informed consent for all clinical and research aspects of the study before enrolment, which was done according to national and institutional guidelines.
An aqueous solution of ABDNAZ was intravenously administered to patients. The aqueous solution contained ABDNAZ (2 mg/mL), polyethylene glycol having a number average molecular weight of 400 g/mol (6% w/w), dimethylacetamide (3% w/w), and water for injection. Patients were administered a volume of the aqueous solution of ABDNAZ sufficient to deliver a dose of ABDNAZ in the amount of 10 mg/m^2, 16.7 mg/m^2, 24.6 mg/m^2, 33 mg/m^2, 55 mg/m^2, or 83 mg/m^2. Three patients were given a starting dose of 10 mg/m^2 of ABDNAZ before dose escalation (to 16.7 mg/m^2, 24.6 mg/m^2, 33 mg/m^2, 55 mg/m and 83 mg/m^2), with at least three patients per dose cohort, allowing a 2-week observation period before dose escalation. […] Thereafter, peripheral intravenous delivery in the antecubital or forearm area was used and a longer duration of time was used to perform the infusion (e.g., ranging from 2 hours to 8 hours, while administering at a rate of 3.5 mL/hour that could be adjusted up or down in 0.5 mL/hour increments based on patients' ability to tolerate the infusion). […]

[1] = 10 mg/m^2 dose (n = 6), number of patients
[2] = 16.7 mg/m^2 dose (n = 3), number of patients
[3] = 24.6 mg/m^2 dose (n = 3), number of patients
[4] = 33 mg/m^2 dose (n = 4), number of patients
[5] = 55 mg/m^2 dose (n = 3), number of patients
[6] = 83 mg/m^2 dose (n = 6), number of patients
[7] = twenty-five patients, all dose cohorts
[8] = twenty-five patients, all dose cohorts 10-83 mg/m^2

**Q.** Which results are given for `O=C(CBr)N1CC([N+](=O)[O-])([N+](=O)[O-])C1` [ABDNAZ, 2-bromo-1-(3,3-dinitroazetidin-1-yl)ethanone]?
**A.** Dyspnoea or wheezing, Grade 1-2, share of patients (10 mg/m^2 dose (n = 6)): (17%); Infusion-site pain, Grade 1-2, share of patients (10 mg/m^2 dose (n = 6)): (67%); Arm swelling or oedema, Grade 1-2 [1]: 0; Arm swelling or oedema, Grade 3 [1]: 0; Dyspnoea or wheezing, Grade 1-2 [1]: 1; Dyspnoea or wheezing, Grade 3 [1]: 0; Infusion-site pain, Grade 1-2 [1]: 4; Infusion-site pain, Grade 3 [1]: 0; Mouth tingling or burning, Grade 1-2 [1]: 0; Mouth tingling or burning, Grade 3 [1]: 0; Vein hardening, Grade 1-2 [1]: 0; Vein hardening, Grade 3 [1]: 0; Arm swelling or oedema, Grade 1-2, share of patients (16.7 mg/m^2 dose (n = 3)): (33%); Infusion-site pain, Grade 1-2, share of patients (16.7 mg/m^2 dose (n = 3)): (100%); Arm swelling or oedema, Grade 1-2 [2]: 1; Arm swelling or oedema, Grade 3 [2]: 0; Dyspnoea or wheezing, Grade 1-2 [2]: 0; Dyspnoea or wheezing, Grade 3 [2]: 0; Infusion-site pain, Grade 1-2 [2]: 3; Infusion-site pain, Grade 3 [2]: 0; Mouth tingling or burning, Grade 1-2 [2]: 0; Mouth tingling or burning, Grade 3 [2]: 0; Vein hardening, Grade 1-2 [2]: 0; Vein hardening, Grade 3 [2]: 0; Infusion-site pain, Grade 1-2, share of patients (24.6 mg/m^2 dose (n = 3)): (33%); Arm swelling or oedema, Grade 1-2 [3]: 0; Arm swelling or oedema, Grade 3 [3]: 0; Dyspnoea or wheezing, Grade 1-2 [3]: 0; Dyspnoea or wheezing, Grade 3 [3]: 0; Infusion-site pain, Grade 1-2 [3]: 1; Infusion-site pain, Grade 3 [3]: 0; Mouth tingling or burning, Grade 1-2 [3]: 0; Mouth tingling or burning, Grade 3 [3]: 0; Vein hardening, Grade 1-2 [3]: 0; Vein hardening, Grade 3 [3]: 0; Arm swelling or oedema, Grade 2, share of patients (33 mg/m^2 dose (n = 4)): (25%); Infusion-site pain, Grade 2, share of patients (33 mg/m^2 dose (n = 4)): (75%); Infusion-site pain, Grade 3, share of patients (33 mg/m^2 dose (n = 4)): (25%); Vein hardening, Grade 2, share of patients (33 mg/m^2 dose (n = 4)): (25%); Arm swelling or oedema, Grade 2 [4]: 1; Arm swelling or oedema, Grade 3 [4]: 0; Dyspnoea or wheezing, Grade 2 [4]: 0; Dyspnoea or wheezing, Grade 3 [4]: 0; Infusion-site pain, Grade 2 [4]: 3; Infusion-site pain, Grade 3 [4]: 1; Mouth tingling or burning, Grade 2 [4]: 0; Mouth tingling or burning, Grade 3 [4]: 0; Vein hardening, Grade 2 [4]: 1; Vein hardening, Grade 3 [4]: 0; Arm swelling or oedema, Grade 1-2, share of patients (55 mg/m^2 dose (n = 3)): (67%); Dyspnoea or wheezing, Grade 1-2, share of patients (55 mg/m^2 dose (n = 3)): (33%); Infusion-site pain, Grade 1-2, share of patients (55 mg/m^2 dose (n = 3)): (100%); Mouth tingling or burning, Grade 1-2, share of patients (55 mg/m^2 dose (n = 3)): (67%); Vein hardening, Grade 1-2, share of patients (55 mg/m^2 dose (n = 3)): (33%); Arm swelling or oedema, Grade 1-2 [5]: 2; Arm swelling or oedema, Grade 3 [5]: 0; Dyspnoea or wheezing, Grade 1-2 [5]: 1; Dyspnoea or wheezing, Grade 3 [5]: 0; Infusion-site pain, Grade 1-2 [5]: 3; Infusion-site pain, Grade 3 [5]: 0; Mouth tingling or burning, Grade 1-2 [5]: 2; Mouth tingling or burning, Grade 3 [5]: 0; Vein hardening, Grade 1-2 [5]: 1; Vein hardening, Grade 3 [5]: 0; Arm swelling or oedema, Grade 1-2, share of patients (83 mg/m^2 dose (n = 6)): (67%); Dyspnoea or wheezing, Grade 1-2, share of patients (83 mg/m^2 dose (n = 6)): (50%); Infusion-site pain, Grade 1-2, share of patients (83 mg/m^2 dose (n = 6)): (100%); Mouth tingling or burning, Grade 1-2, share of patients (83 mg/m^2 dose (n = 6)): (33%); Vein hardening, Grade 1-2, share of patients (83 mg/m^2 dose (n = 6)): (83%); Arm swelling or oedema, Grade 1-2 [6]: 4; Arm swelling or oedema, Grade 3 [6]: 0; Dyspnoea or wheezing, Grade 1-2 [6]: 3; Dyspnoea or wheezing, Grade 3 [6]: 0; Infusion-site pain, Grade 1-2 [6]: 6; Infusion-site pain, Grade 3 [6]: 0; Mouth tingling or burning, Grade 1-2 [6]: 2; Mouth tingling or burning, Grade 3 [6]: 0; Vein hardening, Grade 1-2 [6]: 5; Vein hardening, Grade 3 [6]: 0; Pain at the injection site, grade (all dose cohorts 10-83 mg/m^2): mostly grade 1 and grade 2; Patients needing dose reduction to 33 mg/m^2 because of localized infusion pain (highest dose cohort (83 mg/m^2)): Three; Maximally feasible dose (limited by time constraints related to management of infusion pain): 83 mg/m^2; Patients needing dose reduction to 33 mg/m^2 because of localized infusion pain (penultimate dose cohort (55 mg/m^2)): one; Arm swelling or oedema, number of patients [7]: eight; Arm swelling or oedema, share of patients [7]: 32%; Vein hardening, number of patients [7]: seven; Vein hardening, share of patients [7]: 28%; Pain at the injection site, number of patients [8]: 21 patients; Pain at the injection site, share of patients [8]: 84%
